In patent US4992449A, “7-(substituted)cycloalkylamino-1 -(substituted)-6-fluoro-1,4-dihydro-4-oxo-3-quinolinecarboxylic acids” (American Cyanamid Company, priority 1990, dated 1991):
≈ marks a conversion by molar mass, not a printed value. Where two headings read alike, the source gives them in different places.

Tests used:
Assay in all cases: In vitro antibacterial MIC, agar plate dilution
Type in all cases: cell-based
[1] = system: Escherichia coli ATCC 25922; conditions: Table II, Excherichia coli ATCC 25922
Protocol: (§1) The in vitro antimicrobial spectrum of the compounds of this invention were determined by the agar plate dilution method with Mueller-Hinton agar and an inoculum of each test organism of approximately 10^4 colony forming units delivered by the Steers replicating device. The minimal inhibitory concentration (MIC) in mcg/ml is defined as the lowest concentration of test compound that inhibited visible growth after 18 hours incubation at 35° C. Results are given in Table I, with the test compounds identified by the number of their hereinafter described examples

[2] = system: Excherichia coli CMC 84-11; conditions: Table II
Protocol: as §1

[3] = system: Excherichia coli LL 311; conditions: Table II
Protocol: as §1

[4] = system: Morganella morganii CMC 84-37; conditions: Table II
Protocol: as §1

[5] = system: Proteus rettgeri CMC 84-41; conditions: Table II
Protocol: as §1

[6] = system: Pseudomonas aeruginosa LL-1244; conditions: Table II
Protocol: as §1

[7] = system: Pseudomonas aeruginosa VGH 84-4; conditions: Table II
Protocol: as §1

[8] = system: Serratia marcescens K 84-18; conditions: Table II
Protocol: as §1

[9] = system: Serratia marcescens VGH 84-30; conditions: Table II
Protocol: as §1

[10] = system: Staphylococcus aureus ATCC 29213; conditions: Table II
Protocol: as §1

[11] = system: Staphylococcus aureus Smith 1; conditions: Table II
Protocol: as §1

[12] = system: Staphylococcus aureus VGH 84-45; conditions: Table II
Protocol: as §1

[13] = system: Streptococcus faecalis UCI 85-19; conditions: Table II
Protocol: as §1

[14] = system: Streptococcus faecalis VGH 84-65; conditions: Table II
Protocol: as §1

[15] = Escherichia coli, ATCC25922, 18 h, read-out: MIC
[16] = Providencia rettgeri, CMC8441, 18 h, read-out: MIC
[17] = Pseudomonas aeruginosa, LL1244, 18 h, read-out: MIC
[18] = Pseudomonas aeruginosa, VGH844, 18 h, read-out: MIC
[19] = Staphylococcus aureus, ATCC29213, 18 h, read-out: MIC
[20] = Staphylococcus aureus, SMITH1, 18 h, read-out: MIC
[21] = Enterococcus faecalis, UCI8519, 18 h, read-out: MIC
[22] = Enterococcus faecalis, VGH8465, 18 h, read-out: MIC

| SMILES | MIC [11] [µg/mL] | MIC [1, 15] [µg/mL] | MIC ([2]; 18 h, read-out: MIC) [µg/mL] | MIC ([3]; 18 h, read-out: MIC) [µg/mL] | MIC ([4]; CMC8437, 18 h, read-out: MIC) [µg/mL] | MIC [5, 16] [µg/mL] | MIC [6, 17] [µg/mL] | MIC [7, 18] [µg/mL] | MIC ([8]; K8418, 18 h, read-out: MIC) [µg/mL] | MIC ([9]; VGH8430, 18 h, read-out: MIC) [µg/mL] | MIC [10, 19] [µg/mL] | MIC [11, 20] [µg/mL] | MIC ([12]; VGH8445, 18 h, read-out: MIC) [µg/mL] | MIC [13, 21] [µg/mL] | MIC [14, 22] [µg/mL] | further results |
| --- | --- | --- | --- | --- | --- | --- | --- | --- | --- | --- | --- | --- | --- | --- | --- | --- |
| CCn1cc(C(=O)O)c(=O)c2cc(F)c(N[C@@H]3CCCC[C@H]3N)cc21 (relative stereo) [Example 9, Trans-(+)-7-[(2-Aminocyclohexyl)amino]-1-ethyl-6-fluoro-1,4-dihydro-4-oxo-3-quinolinecarboxylic acid] | 128.00 (≈ 368 µM) | – | – | – | – | – | – | – | – | – | – | – | – | – | – | MIC [1]: 32.00 µg/mL (≈ 92.1 µM); MIC [2]: 16.00 µg/mL (≈ 46.1 µM); MIC [3]: 32.00 µg/mL (≈ 92.1 µM); MIC [4]: 32.00 µg/mL (≈ 92.1 µM); MIC [5]: 128.00 µg/mL (≈ 368 µM); MIC [6]: 128.00 µg/mL (≈ 368 µM); MIC [7]: 128.00 µg/mL (≈ 368 µM); MIC [8]: 32.00 µg/mL (≈ 92.1 µM); MIC [9]: 128.00 µg/mL (≈ 368 µM); MIC [10]: > 128.00 µg/mL; MIC [12]: 128.00 µg/mL (≈ 368 µM); MIC [13]: 128.00 µg/mL (≈ 368 µM); MIC [14]: 64.00 µg/mL (≈ 184 µM) |
| CCn1cc(C(=O)O)c(=O)c2cc(F)c(N[C@@H]3CCCC[C@H]3N)cc21 (racemic) [Example 7, Trans-(+/-)-7-[(2-Aminocyclohexyl)amino]1-ethyl-6-fluoro-1,4-dihydro-4-oxo-3-quinolinecarboxylic acid] | – | 32 (≈ 92.1 µM) | 16 (≈ 46.1 µM) | 32 (≈ 92.1 µM) | 32 (≈ 92.1 µM) | 128 (≈ 368 µM) | 128 (≈ 368 µM) | 128 (≈ 368 µM) | 64 (≈ 184 µM) | 128 (≈ 368 µM) | > 128 | 16 (≈ 46.1 µM) | 128 (≈ 368 µM) | 128 (≈ 368 µM) | 64 (≈ 184 µM) | – |
| CCn1cc(C(=O)O)c(=O)c2cc(F)c(N[C@@H]3CCCC[C@@H]3O)cc21 (relative stereo) [Example 5, Cis-7-[(2-Hydroxycyclohecxyl)amino]-1-ethyl-6-fluoro-1,4-dihydro-4-oxo-3-quinolinecarboxylic acid] | – | 32 (≈ 91.9 µM) | 32 (≈ 91.9 µM) | 16 (≈ 45.9 µM) | 32 (≈ 91.9 µM) | 64 (≈ 184 µM) | > 128 | > 128 | 64 (≈ 184 µM) | > 128 | 64 (≈ 184 µM) | 8 (≈ 23 µM) | 32 (≈ 91.9 µM) | > 128 | > 128 | – |
| CCn1cc(C(=O)O)c(=O)c2cc(F)c(N[C@@H]3CCCC[C@@H]3NC)cc21 (relative stereo) [Example 10] | – | 8 (≈ 22.1 µM) | 4 (≈ 11.1 µM) | 4 (≈ 11.1 µM) | 8 (≈ 22.1 µM) | 32 (≈ 88.5 µM) | 128 (≈ 354 µM) | 128 (≈ 354 µM) | 8 (≈ 22.1 µM) | 32 (≈ 88.5 µM) | 8 (≈ 22.1 µM) | 2 (≈ 5.53 µM) | 4 (≈ 11.1 µM) | 32 (≈ 88.5 µM) | 32 (≈ 88.5 µM) | – |
| CCn1cc(C(=O)O)c(=O)c2cc(F)c(N[C@@H]3CCCC[C@@H]3N)cc21 (relative stereo) [Example 6, Cis-7-[(2-Aminocyclohexyl)amino]-1-ethyl-6-fluoro-1,4-dihydro-4-oxo-3-quinolinecarboxylic acid] | – | 0.5 (≈ 1.44 µM) | 0.5 (≈ 1.44 µM) | 0.5 (≈ 1.44 µM) | 0.5 (≈ 1.44 µM) | 1 (≈ 2.88 µM) | 8 (≈ 23 µM) | 8 (≈ 23 µM) | 1 (≈ 2.88 µM) | 4 (≈ 11.5 µM) | 8 (≈ 23 µM) | 0.5 (≈ 1.44 µM) | 2 (≈ 5.76 µM) | 8 (≈ 23 µM) | 8 (≈ 23 µM) | – |
| CCn1cc(C(=O)O)c(=O)c2cc(F)c(N[C@@H]3CCCC[C@H]3N)cc21 (relative stereo) [Example 8, Trans-(-)-7-[(2-Aminocyclohexyl)amino]-1-ethyl-6-fluoro-1,4-dihydro-4-oxo-3-quinolinecarboxylic acid] | 16.00 (≈ 46.1 µM) | 32 (≈ 92.1 µM) | 16 (≈ 46.1 µM) | 32 (≈ 92.1 µM) | 32 (≈ 92.1 µM) | 128 (≈ 368 µM) | > 128 | > 128 | 32 (≈ 92.1 µM) | 128 (≈ 368 µM) | 128 (≈ 368 µM) | – | 128 (≈ 368 µM) | 128 (≈ 368 µM) | 64 (≈ 184 µM) | – |
